Test results published in patent US6455588B1, “Compositions including modafinil for treatment of eating disorders and for appetite stimulation” (Cephalon, Inc., priority 1999, dated 2002).

Columns and labels:
orexin neurons = assay: Double immunostaining for orexin and Fos, cell counts in the perifornical region of modafinil-treated mice; assay type: in vivo; details: wild-type mice, 150 mg/kg i.p., 2 hours
Procedure: To determine that modafinil might act through orexin neurons, wild-type mice were injected at noon with modafinil (150 mg/kg i.p.), or vehicle, and sacrificed 2 hours later. Brains were removed, double immunostained for orexin and Fos (an indicator of neuronal activity), and cells were counted in the periforllical region. The number of orexin-immunoreactive neurons was the same in both groups (44-47 cells/section), but the modafinil-treated group had over three times as many Fos-immunoreactive neuronal nuclei (38 in the modafinil-treated mice vs. 11 in the vehicle controls; p=0.01). Within the population of orexin-immunoreactive neurons, modafinil induced a 9-fold increase in the number of Fos-immunoreactive cells (64% double labeled neurons in the modafinil group vs. 7% in the vehicle group, p=0.01) (FIG. 1). Thus, in the lateral hypothalamus, modafinil treatment is associated with activation of orexin neurons, and is thus useful as a treatment for eating disorders or for increasing appetite.

[1] = 400 mg/day, clinical trials; cited from earlier work
[2] = test system: neurons of the TMN and VLPO of the hypothalamus; assay: Neuronal activity in hypothalamic nuclei (TMN, VLPO) after modafinil administration; assay type: in vivo, rats
Text: Activation of this histaminergic pathway by modafinil results in cortical activation and wakefulness. Thus, it appears that the physiologic basis for the wake-promoting actions of modafinil involves disinhibition of histaminergic neurons of the TMN by inhibitory actions on the VLPO. This represents the first pharmacologic agent known to produce wakefulness by activation of the TMN.

**Q.** Which Fos-immunoreactive neuronal nuclei (orexin neurons; perifornical region, vehicle 11, p=0.01) does the source give for `NC(=O)C[S+]([O-])C(c1ccccc1)c1ccccc1` (stereo not drawn) [modafinil, 2-(benzhydrylsulfinyl) acetamide] here?
**A.** 38

**Q.** What about the “double labeled (orexin/Fos) neurons within orexin-immunoreactive neurons” value (orexin neurons; vehicle 7%, p=0.01) of the same compound?
**A.** 64%

**Q.** What about the “increase in the number of Fos-immunoreactive cells within orexin-immunoreactive neurons” value (orexin neurons; versus vehicle) of the same compound?
**A.** 9 fold

**Q.** What about the tolerability [1] of the same compound?
**A.** well tolerated

**Q.** And the “activity of the neurons in the ventrolateropreoptic area (VLPO) of the hypothalamus” value ([2]; rats)?
**A.** reduced the activity

**Q.** And the “activity in the TMN of the posterior hypothalamus” value ([2]; wakefulness-promoting doses)?
**A.** stimulation of activity
